Measured values: patent US20190315775A1, “MODIFIED […] AND PHARMACEUTICAL COMPOSITION HAVING SAME AS ACTIVE INGREDIENT” (KEIO UNIVERSITY, priority 2016, published 2019)

How the values were obtained:
[1] = system: KMM1 high-risk MM cell line; assay: MTT cell proliferation inhibition, KMM1; assay type: cell-based; conditions: Homo sapiens, KMM-1, KMM1, t(6;14), t(8;14), del17, 48 hours, read-out: IC50, cell proliferation inhibitory activity, KMM1
Procedure: (§1) For examination of cell proliferation inhibitory activity, high-risk MM cell lines (KMM1, KMS11, KMS21, KMS26, KMS28, KMS34) established by Takemi Otsuki et al., of Kawasaki Medical School were used (Otsuki, T. et al., Int. J. Oncol., 15: 1205-1212, 1999). […] The genetic abnormality of these cell types, and in particular deletion of p53 gene were examined by FISH method (Chang, H. Blood, 105: 358-360, 2005) (WO2010/061862A1). […] These high-risk MM cell lines were treated with drugs such as TC11, HOEtO-TC11, PEG11(E)-TC11, and PEG11(O)-TC11 at arbitrary concentrations. […] Specifically, each high-risk MM cell line was prepared at a concentration of 2×10^5 cells/ml, and then seeded in an amount of 50 μl (1×10^4 cells) per well. After 24 hours, drugs such as TC11, HOEtO-TC11, PEG11(E)-TC11, and PEG11(O)-TC11 having arbitrary concentrations were added. At 48 hours after addition of each drug, 10 μL each of an MTT labeling reagent in Cell Proliferation Kit I [MTT] (Roche Diagnostics, Basel, Switzerland) was added. After 4 hours of treatment at 37° C., 100 μL each of solution buffer was added and then left to stand overnight at 37° C. Absorbance was measured using a microplate reader Infinit™ M1000 (Tecan, Maennedorf, Switzerland) at a wavelength of 570 nm. Cell viability was found from an absorbance ratio using absorbance at 0 μM designated as 100%. IC50 was calculated from a semi-logarithmic chart using Microsoft (registered trademark) Excel.

cereblon (CRBN) = target: T1, cereblon (CRBN) (Homo sapiens, UniProt Q96SW2); assay: Surface plasmon resonance biosensor (BIACORE 3000) interaction with cereblon; assay type: binding; conditions: measured at 1 μM, 2 μM and 10 μM, FIG. 9C
T1 construct: recombinant full-length CRBN prepared by the above method was reacted with the beads; T7 tag (N); FLAG tag (C); made in house; host or cells: 293T cells (pcDNA3.3 vector), RIPA extract purified on Ni Sepharose excel
T1 sequence (Q96SW2 whole entry): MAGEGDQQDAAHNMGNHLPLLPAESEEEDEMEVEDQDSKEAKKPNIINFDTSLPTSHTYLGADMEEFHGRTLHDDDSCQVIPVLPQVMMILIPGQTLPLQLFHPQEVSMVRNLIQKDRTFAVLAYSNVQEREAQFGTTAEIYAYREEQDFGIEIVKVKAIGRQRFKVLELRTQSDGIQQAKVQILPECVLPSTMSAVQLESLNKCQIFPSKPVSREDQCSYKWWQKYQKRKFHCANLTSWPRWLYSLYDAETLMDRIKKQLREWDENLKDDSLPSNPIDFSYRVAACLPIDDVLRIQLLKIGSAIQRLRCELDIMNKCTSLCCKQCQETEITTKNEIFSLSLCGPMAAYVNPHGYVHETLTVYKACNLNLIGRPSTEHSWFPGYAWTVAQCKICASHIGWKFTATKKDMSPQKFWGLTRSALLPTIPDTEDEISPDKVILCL

KMS11 xenograft = assay: Antitumor effect on KMS11-bearing mice (Example 16); assay type: in vivo, ICR/SCID mice; conditions: for Body weight compared to the control group: at the doses suppressing tumor growth; for Tumor volume compared to the control: i.p., equimolar to TC11 60 mg/kgBW
Procedure: TC11 and its derivatives were examined for in vivo antitumor effects using 6 KMS11 xenograft model mice. KMS11 was administered to 6-week-old ICR/SCID mice at 3×10^7 cells/mouse via hypodermic injection. Tumor volume was measured over time. The day on which each tumor volume exceeded 50 mm^3 was designated as Day 1 and observation was performed for 14 days. The single dosage of TC11 was 60 mg/kgBW, the intraperitoneal dosages of PEG11(E)-TC11 and PEG11(O)-TC11 were 177.3 mg/kgBW and 163.8 mg/kgBW, respectively, which were equimolar amounts of that of TC11. […] The final composition of the solvent was 10% DMSO+1% Tween 80/physiological saline. […] Drug administration was performed for two out of every 3 days (Day 1, 2, 4, 5, 7, 8, 10, 11, […], 13). Mice were sacrificed on Day 14, and then tumor weights were measured and in vivo findings were confirmed.

[2] = system: KMS28 high-risk MM cell line; assay: MTT cell proliferation inhibition, KMS28; assay type: cell-based; conditions: Homo sapiens, KMS28, t(4;14), del17, 48 hours, read-out: IC50, cell proliferation inhibitory activity, KMS28
Procedure: as §1

[3] = system: KMS21 high-risk MM cell line; assay: MTT cell proliferation inhibition, KMS21; assay type: cell-based; conditions: Homo sapiens, KMS21, t(11;14), 48 hours, read-out: IC50, cell proliferation inhibitory activity, KMS21
Procedure: as §1
Moreover, the concentration dependency of the in vitro cell proliferation inhibitory activity of TC11, and its derivatives, PEG11(E)-TC11 and HOEtO-TC11 against high-risk MM cell line (KMS21) was examined in detail (FIG. 4). […] Such a phenomenon was similarly observed for other high-risk MM cell lines, KMS11, KMS34, and MUM24.

[4] = system: KMS34 (human myeloma cells); assay: WST-1 proliferation assay (Example 10), KMS34; assay type: cell-based; conditions: KMS-34, WST-1, 48 hours
Procedure: Cancer cells used herein were KMS34 (human myeloma cells), HeLa (human cervical cancer cells), HCT116 (human colon cancer cells; p53+/+), KATOIII (human stomach cancer cells), MDA-MB-231 (human breast cancer cells), HT-29 (human colon adenocarcinoma cells), PANC-1 (human pancreatic cancer cells), and Li-7 (human liver cancer cells). Proliferation assay of various cancer cells was performed by the WST-1 method (Cook, J A. & Mitchell, J B., Anal. Biochem., 179, 1-7, 1984) as follows. One μ1 each of PEG11(E)-TC11 and PEG11(O)-TC11 prepared in advance at target concentrations was added into each well of a 96-well microplate. Medium was added to the wells at 50 μl per well, and then mixed by tapping lightly the plate. Subsequently, KMS34 was prepared at a concentration of 5×10^5 cells/ml, and cells other than KMS34 were prepared at a concentration of 2×10^5 cells/ml. Cells were seeded at 50 μl per well (2.5×10^4 cells, 1×10^4 cells), and then incubated in a CO2 incubator (37° C., 5% CO2) for 48 hours. Ten μ1 each of cell proliferation reagent WST-1 (Roche) was added to each well after incubation, and then the resultants were mixed by lightly tapping the plate, followed by 1 hour of reaction in the CO2 incubator. Subsequently, the plate was shaken with a plate reader for 1 minute, and then absorbance was measured at 450 nm. At this time, absorbance was also measured at 595 nm as a reference wavelength. The net absorbance was obtained by subtracting the absorbance at the reference wavelength from the absorbance at 450 nm.

MUM24 MM cell line = assay: MTT cell proliferation inhibition, MUM24; assay type: cell-based; conditions: Homo sapiens, MUM24, t(4;14), del13, del17, 48 hours, read-out: IC50, cell proliferation inhibitory activity, MUM24
[5] = system: KMS26 high-risk MM cell line; assay: MTT cell proliferation inhibition, KMS26; assay type: cell-based; conditions: Homo sapiens, KMS-26, KMS26, t(4;14), t(4;16), del17, 48 hours, read-out: IC50, cell proliferation inhibitory activity, KMS26
Procedure: as §1

[6] = Water solubility of drugs (saturation concentration by HPLC); assay type: physicochemical; conditions: 100 mM Tris-HCl (pH 7.5); for Water solubility: 25° C., saturation concentration; for Water solubility, relative ratio (numerals in parentheses): relative to TC11
high-risk MM cell lines = assay: MTT cell proliferation inhibition, panel of high-risk MM cell lines; assay type: cell-based; conditions: Homo sapiens, range over the cell lines of Table 2, 48 hours
Procedure: as §1

[7] = 6 KMS11 xenograft model mice, i.p. 177.3 mg/kgBW

Binding to CRBN (SPR sensorgram) (cereblon (CRBN))	IC50 [4] [µM]	Water solubility [6] [g/100 ml]	Water solubility, relative ratio (numerals in parentheses) [6]	SMILES	IC50 [1] [µM]	Mice from which the primary lesion had completely disappeared (KMS11 xenograft; [7]) [mouse]	Mice having tumor sizes almost the same as at initiation of administration (KMS11 xenograft; [7]) [mice]	Body weight compared to the control group (KMS11 xenograft; KMS11 xenograft mice)	Tumor volume compared to TC11 (KMS11 xenograft; KMS11 xenograft mice, i.p. 177.3 mg/kgBW, 14 days)	Tumor volume compared to the control (KMS11 xenograft; KMS11 xenograft mice, 14 days)	IC50 [2] [µM]	IC50 [3] [µM]	IC50 (MUM24 MM cell line) [µM]	IC50 [5] [µM]	IC50 (high-risk MM cell lines) [µM]
never bind to CRBN	0.67	8.89	4,447 ×	COCCOCCOCCOCCOCCOCCOCCOCCOCCOCCOCCOCCC(=O)OCCOc1cc2c(cc1N)C(=O)N(c1c(C(C)C)cccc1C(C)C)C2=O [PEG11(E)-TC11]	6.3	1	3	no decrease in body weight	significant decrease in tumor volume compared to TC11	significant decreases in tumor volume	6.8	1.6	1.8	2.7	1 to 7
never bind to CRBN	16	1.47	735 ×	COCCOCCOCCOCCOCCOCCOCCOCCOCCOCCOCCOCCOc1cc2c(cc1N)C(=O)N(c1c(C(C)C)cccc1C(C)C)C2=O [PEG11(O)-TC11]	59.3			no decrease in body weight		significant decreases in tumor volume	25.8	22.7	9.2	16.4	5 to 60
never bind to CRBN	2.6	0.002	1 ×	CC(C)c1cccc(C(C)C)c1N1C(=O)c2ccc(N)cc2C1=O [TC11, 2-(2,6-di-isopropylphenyl)-5-amino-1H-isoindole-1,3-dione, reference compound]	5.1			no decrease in body weight		significant decreases in tumor volume	7.1	2.8	3	3	2 to 8
